Test results: PMC4965013, “Open Source Drug Discovery with the Malaria Box Compound Collection for Neglected Diseases and Beyond” (PLoS Pathogens, 2016)
Read-outs that look alike come from different tables or passages of the source.

Key:
[1] = tested on: P. falciparum 3D7 gametocytes stage IV-V; assay: Gametocyte pLDH assay UMIL; type: cell-based; settings: Plasmodium falciparum, 3D7, 72 h
Protocol: Columns BO-BR: Taramelli group (Columns BO-BP data presented first in this paper, Columns BQ-BR are new data except as noted below). Gametocytocidal activity at UMIL. The Malaria Box compounds were used for primary screening against P. falciparum 3D7 gametocytes and subsequently for IC50 determination against Pf gametocytes obtained from the 3D7 and the 3D7elo1-pfs16-CBG99 transgenic strain [74], as previously described. The primary screening was performed on stage IV-V gametocytes from the 3D7 strain at 3.7 µM, in 96 well plates, using 100 nM epoxomicin and 1 µM DHA as positive controls and 0.5% DMSO as negative untreated control. […] The dose-response experiments were performed in 96 well plates using the 3D7 strain (pLDH, 72+72h, column BR in heat map) and the 3D7elo1-pfs16-CBG99 (luciferase assay, 72h, column BQ in heat map). Data analysis was performed as described.

P. berghei ookinetes = assay: P. berghei Ookinete Development Assay (Pb ODA); type: cell-based; settings: Plasmodium berghei
From the text: Columns BX- CA, CD-DF: Delves, Ruecker, & Sinden group (Data and methods published in ref [82] except Column CE which is new data) The data represent our primary screening data in the P. falciparum Dual Gamete formation assay (Pf DGFA). They show the functional viability of mature Stage V male and female gametocytes as reported by their ability to undergo gamete formation as reported in the reference. Column CD represents primary screening data in the P. berghei Ookinete Development Assay (Pb ODA) at 1 µM as reported in the reference. Column CE represents a parallel screen in the Pb ODA at 10 µM that has not been published.

[2] = tested on: Saccharomyces cerevisiae ABC16-Monster; assay: S. cerevisiae ABC16-Monster growth inhibition; type: cell-based; settings: ABC16MONSTER, read-out: S. cerevisiae strain ABC16-Monster in YPD % inhibition
Protocol: Column EA: Suzuki group (data presented first in this paper). Screening of MMV compounds for Saccharomyces cerevisiae ABC16-Monster growth inhibition. Methods: Compounds were added at 100 micromolar to YPD medium (1% yeast extract, 2% peptone, and 2% glucose). Only the solvent dimethyl sulfoxide (DMSO) without any MMV compound was added at 1% to the negative control. The initial density of ABC16-Monster cells corresponded to optical density at 600 nanometers (OD600) of 0.01. Cells were cultured without agitation in a 96-well plate at 30 degrees Celsius for 18 hours and then resuspended for measurement of OD600. For each compound, two cultures were conducted and examined. The average OD600 value was used. To calculate percent inhibition, OD600 for cells cultured with a compound was divided by OD600 for the negative control. The ABC16-Monster yeast strain was previously described.

[3] = tested on: HIV-1 JR-FL or HIV-1 NL4-3 viruses; assay: HIV-1 viral production p24 ELISA; type: cell-based
Protocol: Columns FK-GB, Moore group (data presented first in this paper). HIV and HIV-producing cell lines, toxicity and viral suppression. […] MMV compounds were incubated with HIV-1 JR-FL or HIV-1 NL4-3 pseudoviruses and U87-CD4-CCR5 or U87-CD4-CXCR4 cells (obtained through the NIH AIDS Reagent Program, Division of AIDS, NIAID, NIH: U87 CD4+CCR5+ Cells from Dr. HongKui Deng and Dr. Dan R. Littman) respectively for 3 days. Cells were assayed for infection by luciferase production (Bright-Glo Luciferase Substrate, Promega) and cell viability by MTT assay. […] MMV compounds were next incubated with HIV-1 JR-FL or HIV-1 NL4-3 viruses and U87-CD4-CCR5 or U87-CD4-CXCR4 cells respectively for 7 days. Cell supernatants were assayed for viral production by p24 ELISA [153] and cell viability by MTT assay. […] DMSO (5%) was completely toxic to all cells (based on visual inspection) and served as the positive control for MTT assays.

[4] = Plasma protein binding mouse; type: in vitro ADME; settings: CD-1, mouse
Protocol: Columns GD-GJ: Wuxi Inc. data for MMV (data presented first in this paper) PK/DMPK Parameters: Fasted animals (Male CD-1 mouse, 7-9 weeks age, 30±10 g, n=3) obtained from an approved vendor (SLAC Laboratory Animal Co. Ltd., Shanghai, China or Sino-British SIPPR/BK Laboratory Animal Co. Ltd Shanghai, China) were administered with a single oral dose (140 μmol/kg) using DMSO: 1% HPMC (5:95) as a vehicle. Blood sampling was performed via the submandibular or saphenous vein (t=0.083, 0.25, 1, 2, 4, 6 and 9 h) and transferred into microcentrifuge tubes containing Sodium Heparin (1,000 IU/ml) as anti-coagulant placed on wet ice until processed for plasma by centrifugation at approximately 4°C, 3000×g for 15 min. Plasma samples were stored in polypropylene tubes, quick frozen over dry ice and kept at -70±10°C until LC/MS/MS analysis. LC/MS/MS methods for the quantitative determination compounds plasma levels were developed with an internal standard. […] (Phoenix WinNonlin, version 6.2.1, Pharsight, Mountain View, CA) and expressed as Cmax & AUC0-last. […] AUC0-last is the area under the curve expressed as >12 h*μM (Yes or No). Plasma protein binding assay (PPB) (CD-1 mouse and human) expressed as <95% bound, >95% bound, or >99% bound. Kinetic Solubility at pH 7.4 was determined by liquid chromatography/chemiluminescence nitrogen detection (LC/CLND) and was scored as greater than 20µM (Yes or No). hERG inhibition was measured at 11µM by the QPatch- HT system and is expressed as “Yes” if greater than 45% inhibited at 11µM and “No” if less than or equal to 45% inhibited at 11µM. As part of the Drug-Drug Interaction studies (DDI issues), 5 human and 1 mouse CYP isoforms (1A2, 2C9, 2C19, 2D6, 3A4-M, 3A4-T) were tested for inhibition assay at 10 µM. […] Otherwise DDI issues were scored as “No”. Positive and negative controls were run for each assay (Table 1).

[5] = tested on: P. falciparum NF54Pfs16 gametocytes stage I-III; settings: ref [61], cited from earlier work
[6] = tested on: P. falciparum NF54 late-stage gametocytes; settings: 5 µM; ref [55]; cited from earlier work
[7] = tested on: P. falciparum NF54 gametocytes; set-up: method as in ref [72] (a number printed in a supplementary file, which may have a reference list of its own: not looked up in the article's list); settings: 10µM; ref [72]; cited from earlier work
[8] = 3.7 µM, read-out: gametocytes 3D7, stage IV-V, pLDH, 72+72h, %inhibition
[9] = 3.7µM, read-out: gametocytes 3D7, stage IV-V, pLDH, 72h, %inhibition
[10] = Human immunodeficiency virus 1, NL43, read-out: HIV R5 % inhibition rep3 in U87 (P24 Washout)
[11] = Human immunodeficiency virus 1, NL43, read-out: HIV X4 % inhibition rep3 in U87 (P24 NO Washout)
[12] = Human immunodeficiency virus 1, NL43, read-out: HIV X4 %inhibition rep3 in U87 (P24 Washout)
[13] = Human immunodeficiency virus 1, NL43, read-out: HIV R5 % inhibition rep3 in U87 (P24 NO Washout)

SMILES	inhibition at 3.7 µM [1, 8]	inhibition at 3.7 µM [1, 9]	inhibition at 10 µM (P. berghei ookinetes)	inhibition at 100 µM [2]	inhibition at 5 µM [3, 10]	inhibition at 5 µM [3, 11]	inhibition at 5 µM [3, 12]	fraction unbound [4]	gametocyte early stage (I-III) luciferase % inhibition ([5]; 0.5µM)	gametocyte early stage (I-III) luciferase % inhibition ([5]; 2.5µM)	gametocyte early stage (I-III) luciferase % inhibition ([5]; 5µM)	gametocyte NF54 late stage (IV-V) % inhibition Cassera [6]	gametocyte stage IV-V SYBR Green % inhibition [7]	inhibition at 5 µM [3, 13]
CCN1CCN(c2cc(C)c3cc(NC(=O)c4ccc(OC)c(OC)c4)ccc3n2)CC1 [MMV019074]	13%	10%	43%	3.48%	7%	14%	6.64%	< 0.05	-13%	-14%	-6.56%	27%	47%	
CCOC(=O)c1cnc2ccc(OC)cc2c1NCc1ccccc1 [MMV665813]	12%	26%	33.4%	-1.7%	-13%	20%	16%	< 0.01	-13%	-10%	-8%	36%	61%	-50%
CCN(CC)c1cc(C)c2cc(NC(=O)c3cccc(OC)c3)ccc2n1 [MMV000498]	11%	5%	-0.6%	-6%	-9%	-118%	-40%	< 0.01	-15%	-18%	-3.81%	47%	60%	
COc1ccc(C(=O)Nc2ccc3nc(N4CCCCC4)cc(C)c3c2)cc1OC [MMV019758]	11%	12%	35.4%	-8%	83%	68%	24%	< 0.01	-7%	-13%	-5.6%	56%	49%	31%
COc1cc2cc(C(=O)Nc3ccccc3)c(N)nc2cc1OC [MMV006767]	2.43%	10%	39.4%	24%	9%	104%	56%	> 0.05	-7%	7.41%	19%	7%	60%	103%
